# In PubChem BioAssay AID1996:
# Conditions: buffer; pH 7.4; 200.0 µM
row,Compound,solubility kinetic [µg/mL]
1,Cc1cc(OCC(=O)Nc2ccncc2)ccc1Cl,40.6
2,Cl.Clc1ccc(Cn2c(CN3CCCC3)nc3ccccc32)cc1,49.5
3,Cc1cc(Cl)ccc1NC(=O)CCC(=O)N/N=C/c1cccnc1,> 51.7
4,CCc1ccc(NC(=O)c2cc(Br)ccc2Br)cc1,< 0.8
5,COCc1nnc(NC(=O)CCS(=O)(=O)c2ccccc2)s1,> 51.2
6,O=C(NC1CC1)c1nc(Cn2cc([N+](=O)[O-])cn2)no1,> 41.7
7,Cc1ccsc1C(=O)OCc1cc(=O)n2ccsc2n1,6.3
8,O=C(/C=C/c1ccc(F)cc1)NC(=S)Nc1ccccc1,1.3
9,O=C(/C=C/c1c(F)cccc1Cl)N1CCc2ccccc2C1,5.9
10,O=C(NCCCN1CCOCC1)C(c1ccccc1)c1ccccc1,> 50.8
11,CCCCCN1CC(O)=C(c2nc3ccccc3[nH]2)C1=N,1.1
12,Cc1ccc2nc(NC(=O)COC(=O)c3cccnc3)sc2c1,7.5
13,COCCNc1c2c(c(C#N)c3nc4ccccc4n13)CCCC2,11.8
14,CC1CCCC(C)N1C(=O)COC(=O)c1ccco1 (centres undefined),> 39.8
15,CCCCNC(=O)COC(=O)c1ccc(F)cc1Cl,> 43.2
16,Cc1ccc2nc(-c3ccc4c(c3)OCCO4)cn2c1,35.1
17,Cc1ccc(Sc2nc(C)c([N+](=O)[O-])c(C)c2C#N)cc1,0.7
18,O=S(=O)(NCC(O)c1ccccc1)c1ccc(-c2ccccn2)s1 (centres undefined),> 54.1
19,CCCC(=O)c1c[nH]c(C(=O)N2CCOCC2)c1,> 37.5
20,COc1ccccc1CN1C(=O)CNC1=S,> 35.4

row,Compound,solubility kinetic [µg/mL]
1,Cc1ccc(F)cc1NC(=O)N1CCN(C2c3ccccc3-c3ccccc32)CC1,4.9
2,Fc1ccc(-c2csc(NC(=S)Nc3ccccc3)n2)cc1,1.6
3,CC(NC(=O)COC(=O)c1ccccc1F)C1CC2CCC1C2 (centres undefined),> 47.9
4,Cc1cc(C(=O)N2CCC(C(=O)O)CC2)c(C)o1,> 37.7
5,COc1ccc(CC(=O)Nc2cc(C)ccn2)cc1OC,27.7
6,O=C1Nc2ccccc2C1=Nc1ccc(F)cc1,> 36
7,O=Cc1ccc2c(c1)CCN2Cc1ccccc1,15.2
8,O=C1NC(=O)C(C(CC(=O)c2ccccc2)c2ccccc2)C(=O)N1 (centres undefined),> 50.5
9,COc1ccc2c(c1)C(=O)N(CCc1ccc(S(=O)(=O)NC(=O)NC3CCCCC3)cc1)C(=O)C2(C)C,69.5
10,CCOC(=O)c1ccccc1NC(=O)Cc1ccc(S(=O)(=O)N2CCCC2)s1,17.5
11,Cc1nc(-c2ccc(C(=O)Nc3cccc(F)c3)cc2)cs1,< 0.3
12,O=C1c2ccccc2NC(c2cccc(O)c2)N1O (centres undefined),> 38.4
13,Cc1cc(S(=O)(=O)NCCCN2CCOCC2)c(Cl)cc1Cl,42.6
14,CC(=O)Nc1cccc(C(=O)OCC(=O)c2ccccc2Cl)c1,43
15,Cc1c(C(=O)NC2CC2)oc2ccccc12,> 32.3
16,CC(C)CCN1C(=O)C2(OCCCO2)c2cc(Cl)ccc21,3
17,CNC(=O)NC(=O)CN1C(=O)NC2(CCOc3ccccc32)C1=O (centres undefined),> 49.8
18,COc1ccc(CCNC(=O)c2ccc(OC)c(OC)c2)cc1OC,39.6
19,Cn1c(=O)[nH]c2c(Cl)nccc21,> 27.5
20,COc1ccc(CCNC(=O)C2CC2)cc1,32.4

row,Compound,solubility kinetic [µg/mL]
1,O=C(Nc1ccccc1Cl)C1CC(=O)N(c2ccccc2)C1 (centres undefined),33.4
2,CC1Cc2ccccc2N1C(=O)CN1CCCCC1.Cl (centres undefined),39.3
3,COc1cccc(NC(=O)c2ccc3nsnc3c2)c1,24.5
4,Cc1ccc(S(=O)(=O)NCC(=O)OCc2ccccc2)cc1,40.3
5,CC(=O)c1ccc(OCC(O)CNCc2ccc3c(c2)OCO3)cc1 (centres undefined),46.2
6,Cc1ccc(CNC(=O)CCCc2c[nH]c3ccccc23)cc1,17.6
7,CN(C)CCC(=O)C(Cc1ccccc1)c1ccccc1.Cl (centres undefined),44.7
8,CC1CN(C(=O)CCCN2C(=O)c3ccccc3C2=O)CC(C)O1 (centres undefined),> 49.6
9,O=C(CCSCc1ccc(Cl)cc1)NCc1cccnc1,48
10,CC(=O)c1cn(C(=O)c2ccc(Cl)cc2)c2ccccc12,3.6
11,O=C(Nc1ccncc1)c1ccccc1Cl,> 34.9
12,CC(C)c1ccc(C(O)c2nc3ccccc3n2C)cc1 (centres undefined),10.3
13,CC(=O)C(Cc1ccccc1)NC(=O)COC(=O)c1cccc(C)c1[N+](=O)[O-] (centres undefined),> 57.7
14,CCOC(=O)C1CCCN1C(=O)c1ccc(OC)c(Br)c1 (centres undefined),> 53.4
15,Cc1cccc(NC(=O)CCN2CCC(C(N)=O)CC2)c1,41.1
16,CC(=O)Oc1ccc(-c2nc3c(C)cccc3c(=O)o2)cc1,2.9
17,O=C(NCCc1ccccn1)c1cc2ccccc2o1,37.7
18,COc1cc(Cl)c(C)cc1NC(=O)Cc1cccs1,1
19,Cc1ccc(S(=O)(=O)NC(=O)c2ccccc2C)cc1,> 43.4
